{
  "source": "paper PMC6348446",
  "about": "(Journal of Medicinal Chemistry, 2018)",
  "key": {"EOL-1 and A-204 cells": {"tested_on": "EOL-1 and A-204 cells", "test": "Cell viability/proliferation, ranges stated over EOL-1 and A-204", "type": "cell-based", "details": "Homo sapiens; EOL-1 and A-204, text; read-out: EC50 (cell viability), range", "protocol": "(§1) A-204 cells (1 × 10^3) were seeded per well of 384-well plates. After overnight incubation, compounds were added to the cells at logarithmic dose series using the HP digital dispenser D300 (Tecan), normalizing for added DMSO. 1 day and 8 days after seeding cellular ATP content was measured using CellTiterGlo (Promega). Measurements after 8 days were divided by the measurement after 1 day (i.e., the T0 plate) to derive fold proliferation. Data were analyzed with GraphPad Prism software to obtain EC50 values."}, "[1]": {"test": "CHI LogD determination (reverse-phase HPLC)", "type": "physicochemical", "details": "reversed-phase HPLC (ACE Excel 3 SuperC18 column), pH 7.4; read-out: CHI LogD (pH7.4)", "protocol": "(§2) removed from both acceptor and donor compartments and mixed with acetonitrile (80 µL) containing an internal standard. The samples were centrifuged (10 min, 5 °C, 3270 g) to sediment precipitated protein and sealed prior to UPLC-MS/MS analysis using a Xevo TQ-S Micro (Waters Corp, USA). Pe was calculated as shown in the below equation: […]\n(§3) CA(t) = peak area of compound present in acceptor well at time t = 18000 s Cequi = [CD(t) x VD + CA(t) x VA] / (VD + VA)\n(§4) VA = acceptor well volume\n(§5) CD(t) = peak area of compound present in donor well at time t = 18000 s Recovery of compound from donor and acceptor wells was calculated and data was only accepted when recovery exceeded 70%.\nUsing a fast gradient, reverse-phase HPLC method to determine the chromatographic hydrophobicity index (CHI) was determined as described by Camurri and Zaramella (ref. 3) and Valko et al. (ref. 4). Briefly, by plotting the retention time of a set of reference […]\ncompounds against known CHI values. The CHI value of test compounds was then calculated according to their retention time.\nTest compounds were prepared as 0.25 mM solutions in 50:50 acetonitrile:water and analysed by reversed-phase HPLC-UV (wavelength 254 nm) using a ACE Excel 3 SuperC18, 3 µm, 50 x 2.1 mm column with a gradient of aqueous phase (10 mM ammonium acetate, pH 7.4) and mobile phase (acetonitrile).\nIntrinsic clearance (Cli) experiments\nTest compound (0.5 µM) was incubated with female CD1 mouse or human (mixed gender) liver microsomes (Xenotech LLCTM; 0.5 mg/mL 50mM potassium phosphate buffer, pH7.4) and the reaction initiated with addition of excess NADPH (8 mg/mL 50 mM potassium phosphate buffer, pH7.4). Immediately, at time zero, then at 3, 6, 9, 15 and 30 minutes an aliquot (50 µL) of the incubation mixture was removed and mixed with acetonitrile (100 µL) to stop the reaction. Internal standard was added to all samples, the samples centrifuged to sediment precipitated protein and the plates then sealed prior to […] analysis using […]\na Xevo TQ-S Micro (Waters corporation, USA).\nXLfit (IDBS, UK) was used to calculate the exponential decay and consequently the rate constant (k) from the ratio of peak area of test compound to internal standard at each timepoint. The rate of intrinsic clearance (CLi) of each test compound was then calculated using the following calculation:\nCLi(mL/min/g liver) = k x V x Microsomal protein yield\nWhere V (mL/mg protein) is the incubation volume/mg protein added and microsomal protein yield is taken as 52.5 mg protein/ g liver. Verapamil (0.5 µM) was used as a positive control to confirm acceptable assay performance."}, "[2]": {"test": "Parallel Artificial Membrane Permeability Assay (PAMPA)", "type": "in vitro ADME", "protocol": "Test compound (10 µM) was incubated in pre-warmed plasma at 37 ᵒC (that is buffered to pH 7.4 in ratio of 70:30 plasma to buffer). Immediately, at time zero, then at 30, 60, 120, and 180 min, a 50 µL aliquot of the incubation mixture was removed and mixed with 200 µL acetonitrile containing Donepezil as the internal standard (50 ng/ml) to stop the reaction. The samples were centrifuged to sediment the precipitated protein and the plates then sealed prior to UPLC-MS/MS analysis using a Xevo TQ-S Micro (Waters Corporation, USA).\nXLfit (IDBS, UK) was used to calculate the exponential decay and consequently the rate constant (k) from the ratio of peak area of test compound to internal standard at each time point. The half-life was calculated for each test compound from the rate by using the […]\nParallel Artificial Membrane Permeability Assay (PAMPA)\nPAMPA was performed using a 96-well pre-coated BD Gentest™ PAMPA plate (BD Biosciences, U.K.). Each well was divided into two chambers; donor and acceptor, separated by a lipid-oil-lipid tri-layer constructed in a porous filter. The effective permeability, Pe, of the compound was measured at pH 7.4. Stock solutions (5 mM) of the compound were prepared in DMSO. The compound was then further diluted to 10 µM in phosphate buffered […]\nsaline at pH 7.4. […] The compound […]\ndissolved in phosphate buffered saline was then added to the donor side of the membrane and phosphate buffered saline without compound was added to the acceptor side. The PAMPA plate was left at room temperature for 5 h. After which time, an aliquot (100 µL) was then […]\nas §2, §3, §4, §5\nUsing a fast gradient, reverse-phase HPLC method to determine the chromatographic hydrophobicity index (CHI) was determined as described by Camurri and Zaramella (ref. 3) and Valko et al. (ref. 4). Briefly, by plotting the retention time of a set of reference"}, "A-204 cells": {"tested_on": "A-204 cells", "test": "Cell viability/proliferation (cellular ATP, CellTiterGlo) in A-204", "type": "cell-based", "details": "Homo sapiens, A204; A-204 (printed A-402); read-out: EC50 (cytotoxicity, cell viability)", "protocol": "as §1"}, "EOL-1 cells": {"tested_on": "EOL-1 cells", "test": "Cell viability/proliferation (cellular ATP, CellTiterGlo) in EOL-1", "type": "cell-based", "details": "Homo sapiens, EOL1; EOL-1, text; read-out: EC50 (cytotoxicity, cell viability)"}},
  "data": [
    {"smiles": "COc1cc(-c2cn(C)c(=O)c3cnccc23)c(OC)cc1CN(C)C", "note": "[Compound 1b]", "values": [
      {"measurement": "EC50", "setting": "EOL-1 and A-204 cells", "result": "370 to 3550", "unit": "nM"}
    ]},
    {"smiles": "COc1cc(-c2cn(C)c(=O)c3cnccc23)cc(OC)c1CN(C)C", "note": "[Compound 1a]", "values": [
      {"measurement": "EC50", "setting": "EOL-1 and A-204 cells", "result": "90 to 340", "unit": "nM"}
    ]},
    {"smiles": "COc1cc(-c2cn(C)c(=O)c3cnccc23)cc(OC)c1CN1CCN(CCOCCOc2cc(-c3scnc3C)ccc2CNC(=O)[C@@H]2C[C@@H](O)CN2C(=O)[C@@H](NC(=O)C2(F)CC2)C(C)(C)C)CC1", "note": "[Compound 46, (2S,4R)-N-(2-(2-(2-(4-(2,6-Dimethoxy-4-(2-methyl-1-oxo-1,2-dihydro-2,7-naphthyridin-4-yl)benzyl)piperazin-1-yl)ethoxy)ethoxy)-4-(4-methylthiazol-5-yl)benzyl)-1-((S)-2-(1-fluorocyclopropane-1-carboxamido)-3,3-dimethylbutanoyl)-4-hydroxypyrrolidine-2-carboxamide]", "values": [
      {"measurement": "chromatographic logD", "setting": "[1]", "result": 2},
      {"measurement": "recovery at 5 h, 10 µM", "setting": "[2]; PAMPA, pH 7.4", "result": 88, "unit": "%"},
      {"measurement": "Papp at 5 h, 10 µM", "setting": "[2]; PAMPA, pH 7.4, 5 h, read-out: PAMPA pH 7.4 Pe", "result": 0.002, "unit": "×10⁻⁶ cm/s"},
      {"measurement": "PAMPA pH 7.4 HIGH/MED/LOW", "setting": "[2]; pH 7.4, permeability class", "result": "LOW and low cell permeability"}
    ]},
    {"smiles": "COc1cc(-c2cn(C)c(=O)c3cnccc23)cc(OC)c1CN(C)CC(=O)NCCOCCOCCNc1cccc2c1C(=O)N(C1CCC(=O)NC1=O)C2=O", "note": "(centres unmarked) [Compound 21, reference compound]", "values": [
      {"measurement": "EC50", "setting": "A-204 cells", "result": 90, "unit": "nM"},
      {"measurement": "EC50", "setting": "EOL-1 cells", "result": 5, "unit": "nM"}
    ]}
  ]
}
